Laboratory results published in US11944623B2, “Modulators of Kv3 channels to treat pain” (Autifony Therapeutics Limited, priority 2015, dated 2024).

Experiments:
hKv3.4 channels = target: T1, hKv3.4 channels (Homo sapiens, UniProt Q03721); experiment: Kv3.4 Assay 3 (two-electrode voltage clamp, Xenopus oocytes); type: cell-based; design: dose or concentration left out as unconfirmed
T1 construct: expressed in transfected cells; host or cells: Xenopus laevis oocytes, microinjected in vitro transcribed mRNA
T1 sequence (Q03721 1-635): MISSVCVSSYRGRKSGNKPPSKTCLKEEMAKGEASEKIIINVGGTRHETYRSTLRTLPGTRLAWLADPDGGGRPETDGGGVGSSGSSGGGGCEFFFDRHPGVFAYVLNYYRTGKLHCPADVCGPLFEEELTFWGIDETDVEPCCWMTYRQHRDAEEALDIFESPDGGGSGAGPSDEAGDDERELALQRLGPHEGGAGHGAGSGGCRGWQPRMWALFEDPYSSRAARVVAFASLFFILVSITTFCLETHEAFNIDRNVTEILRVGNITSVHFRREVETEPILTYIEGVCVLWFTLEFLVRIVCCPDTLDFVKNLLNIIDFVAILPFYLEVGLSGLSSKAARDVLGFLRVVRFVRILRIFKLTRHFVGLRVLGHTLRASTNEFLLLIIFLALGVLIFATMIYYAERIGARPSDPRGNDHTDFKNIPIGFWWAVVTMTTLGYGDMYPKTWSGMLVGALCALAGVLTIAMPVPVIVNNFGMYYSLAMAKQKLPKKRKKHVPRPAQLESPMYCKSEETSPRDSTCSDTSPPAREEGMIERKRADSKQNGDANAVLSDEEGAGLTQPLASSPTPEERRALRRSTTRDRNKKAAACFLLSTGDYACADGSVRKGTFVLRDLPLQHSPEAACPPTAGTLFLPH
Procedure: hKv3.4 channels were heterologously expressed in Xenopus ooctyes following microinjection of in vitro transcribed mRNA (mMessage mMachine kit, Ambion, Austin, TX). Whole-oocyte currents were recorded 1-4 day post-microinjection at room temperature (21-23° C.) under two-electrode voltage-clamp conditions (OC-725C, Warner, Hamden, CT). ND-96 and ND-96 plus the test compound were delivered using a gravity-driven perfusion system. Whole-oocyte currents mediated by hKv3.4 channels were elicited by 400 ms depolarizing steps from −40 to 60 mV in 10 mV increments from a holding potential of −100 mV under in the absence and then presence of test compound. Voltage-conductance curves were constructed from the peak currents evoked at each voltage step, and the data were fitted to a Boltzmann equation. Data acquisition, leak subtraction and initial analyses were performed using pClamp 9.2/10.3 (Molecular Devices, Sunnyvale, CA). Macroscopic currents were low-pass filtered at 0.5-1 kHz and digitized at 1-2 kHz. Leak and capacitive currents were subtracted on line using a p/4 subtraction strategy. Xenopus laevis frogs were handled according IACUC approved protocols and regulations.

[1] = target: T2, human cloned Kv3.4 channels (Homo sapiens, UniProt Q03721); experiment: Kv3.4 Assay 1 (QPatch HT, HEK293); type: cell-based; conditions: 10 µM concentration (N=2)
T2 construct: expressed in transfected cells
T2 sequence (Q03721 1-635): T1 sequence (Q03721 1-635)
Procedure: The effect of compounds on human cloned Kv3.4 channels expressed stably in a HEK293 call line was evaluated at room temperature using the QPatch HT® (Sophion Bioscience A/S, Denmark), an automatic parallel patch clamp system. Compounds were evaluated at 10 μM in three cells. The duration of exposure to each test article concentration was 5 minutes.
In preparation for a recording session, intracellular solution was loaded into the intracellular compartments of the QPlate and cell suspension was pipetted into the extracellular compartments. After establishment of a whole-cell configuration, membrane currents were recorded using up to 48 parallel patch clamp amplifiers in the QPatch HT® system. The current records were sampled at 2000 Hz and low-pass Bessel filtered at 400 Hz.
Valid whole-cell recordings met the following criteria: • 1. Seal resistance (Rseal) ≥200 MΩ. • 2. Leak current 25% channel current.

| effect on Kv3.4 mediated channel currents (hKv3.4 channels) | shift of the voltage-conductance curve for hK3.4 (hKv3.4 channels) | potentiation of the observed Kv3.4 current [1] | SMILES |
| --- | --- | --- | --- |
| No significant effect | did not significantly shift | – | Cc1ccc(Oc2ncc(N3C(=O)NC(C)(C)C3=O)cn2)c2c1OCC21CC1 [Compound 1, 5,5-dimethyl-3-[2-(7-methylspiro[2H-benzofuran-3,1′-cyclopropane]-4-yl)oxypyrimidin-5-yl]imidazolidine-2,4-dione] |
| – | – | did not potentiate | CC[C@@]1(C)NC(=O)N(c2cnc(Oc3ccc(C)c(OC(F)(F)F)c3)nc2)C1=O [Compound 2, (5R)-5-ethyl-5-methyl-3-[2-({4-methyl-3-[(trifluoromethyl)oxy]phenyl}oxy)-5-pyrimidinyl]-2,4-imidazolidinedione] |
